Assays:
[1] = Comparison of growth in treated female turkeys (Study II, Table IV); format: in vivo, Large White Nicholas turkeys; set-up: Abdominal Adipose: unit not given here; settings: intact female; for Feed/Gain Ratio: 6 through 9 weeks; for Abdominal Adipose (%) / Feed/Gain Ratio (%) / Average Daily Gain (%) / Final 9-Week Body Weight (%) / Right Breast Muscle (%): change vs placebo; for Abdominal Adipose (%) / Feed/Gain Ratio (%): unsigned (decrease); for Average Daily Gain (%) / Final 9-Week Body Weight (%) / Right Breast Muscle (%): unsigned (increase)
Description: (§1) The same large white strain of turkey (received 1 day posthatching from Nicholas Breeding Farms, CA) was used in all studies. Poults were reared in deep litter brooder pens from 1 day posthatch and exposed to constant light until initiation of Studies I and III or through completion in the case of Study II. Studies I and III were conducted in an environmentally controlled room (photoperiod 12L:12D) with birds housed individually in wire-floored layer cages (space dimensions of 0.31 W×0.46 L×0.53 H meters per cage). Water and feed (Agway Game and Turkey Starter Crumbles) was available at all times. Turkeys were rank ordered by weight and distributed into treatment groups of equal mean body weights at the start of each Study (I, II and III).
(§2) Body weight determinations were made at the second and final week of each study, and several organs and tissues were excised and immediately weighed at the time of necropsy. Final shank-toe length, as an indicator of skeletal growth, was also determined. Birds were sacrificed via exanguination by laceration of the jugular vein. Specific details on the experimental design and conduct of each turkey study will follow.
At 6 weeks of age, seventy-seven female turkeys were rank ordered by weight and assigned to 7 treatment groups (11 birds per group) of equal mean weights. Within treatment groups, birds were further allotted to deep-litter pens (3.66×4.27 m) containing 4 subdivisions (0.91×1.22 m), with 3 birds per subdivision except for the last which contained 2. Individual treatment units (or pen subdivisions) were randomized (planned) among pens within the building, such that each pen contained 4 different treatment units (3 or 2 birds each). Feed consumption for each treatment unit was measured; thus, 4 replicates per treatment for feed consumption and feed/gain ratios (or feed efficiency) were calculated.
Treatments entailed the subcutaneous implantation (between the shoulders) of testosterone, 5-alpha-DHT or 19-nortestosterone as either a low (5-mg) or high (50-mg) dose pellet (Innovative Research of America, Rockville, Md.). Implants were specially constructed (steroid compressed into a methylcellulose/lactose pellet) to release respective steroids at a constant rate over a 21 day period (manufacturer statement). In support, a recent report by Satyaswaroop et al. (1984) on mice, found Innovative Research 17 beta-estradiol pellets to have excellent 21-day continued release characteristics (i.e., maintained blood levels of 20-30 ng/ml for 21 days). Group 1 controls were composed of females implanted with a 50-mg placebo pellet. The remaining 6 female treatment groups were as follows: Group 2, testosterone (5-mg); Group 3, 5-alpha-DHT (5-mg); Group 4, 19-nortestosterone (5-mg); Group 5, testosterone (50-mg); Group 6, 5-alpha-DHT (50-mg) and Group 7, 19-nortestosterone (50-mg). Excluding feed efficiency, data means for all other parameters were compared between treatments using individual birds as replicates (n=11). Data means for feed consumption and feed efficiency were compared between treatments using pen subdivisions (3 or 2 birds/subdivision) as replicates (n=8).
^a 5 or 50mg slow release pellets (Innovative Research) administered
subcutaneously at 6 weeks of age.
^b Data for Feed to Gain Ratio is computed for the period 6 through 9
weeks of age. Experimental units are floor pens (n = 4) of […]
values are means and SEM of the pen averages.

[2] = test system: testosterone antiserum; settings: manufacturer statement; cited from earlier work
[3] = Comparison of growth on treated male turkeys (Study I, Table V); format: in vivo, Large White Nicholas turkeys; set-up: Abdominal Adipose: unit not given here; settings: intact male; for Feed/Gain Ratio: n = 4; for Right Breast Muscle (%) / Feed Efficiency / Average Daily Gain (%) / Final 10-Week Body Weight (%) / Abdominal Adipose (%): change vs placebo; for Right Breast Muscle (%) / Average Daily Gain (%) / Final 10-Week Body Weight (%): unsigned (increase); for Feed Efficiency: column head prints (g), cells %; for Abdominal Adipose (%): unsigned (decrease)
Description: as §1, §2
At 7 weeks of age, forty-nine male turkeys were rank ordered by weight and assigned to 7 treatment groups ([…]) of equal mean weights. Within treatment groups, two birds were individually caged (layer cages measuring 0.31 W×0.46 L×0.53 H meters/cage) side by side on one of three tiers (5 cages/tier and 3 tiers/rack). […] Individual treatment units (or bird sets) were randomized (planned) into cages among tiers and racks to eliminate any rack (5) or tier (3 vertical) effects within the room.
Group 1 control males were implanted with a 50-mg compressed (methylcellulose/lactose) placebo pellet. The remaining 6 treatment groups were as follows: Group 2, 50-mg testosterone pellet; Group 3, 50-mg 5-alpha-DHT pellet; Group 4, 50-mg 19-nortestosterone pellet; Group 5, 5.0-cm testosterone Silastic polysiloxane capsule; Group 6, 5-cm 5-alpha-DHT Silastic polysiloxane capsule and Group 7, 5.0-cm 19-nortestosterone Silastic polysiloxane capsule. Excluding feed efficiency, data means for all parameters were compared between treatments using individual birds as replicates (n=8). Data means for feed efficiency were compared between treatments using sets of birds as replicates (n=4).

[4] = Growth promotion and feed efficiency in turkeys (summary in words); format: in vivo
Description: A presently preferred dosage in the form of such a subcutaneous implant is at least about 20 mg, with a dosage of about 50 mg being highly suitable. It has been found suitable to administer the 19-nortestosterone subcutaneously, for example, below the ear of the turkey, using conventional implanting devices. The dosage can be administered in the form of an implant device which releases the 19-nortestosterone slowly in a desired constant rate, over a period of time such a about 21 days or more. Desirably, the implant can be in the form of a capsule enveloping the 19-nortestosterone which provides the desired slow, constant release or in the form of a polymer mass pellet having encapsulated or dispersed therein 19-nortestosterone so as to permit by diffusion or slow dissolution release subcutaneously and subsequent systemic absorption. It has been found suitably to use silicone rubber as a polymeric encapsulating material.
It is a natural compound.

C[C@]12CCC(=O)C[C@@H]1CC[C@@H]1[C@@H]2CC[C@]2(C)[C@@H](O)CC[C@@H]12 [5-alpha-DHT, 5-alpha-dihydrotestosterone]
Abdominal Adipose ([1]; 5-mg pellet): 21.4
Average Daily Gain ([1]; 5-mg pellet): 106 ± 2 g
Final 9-Week Body Weight ([1]; 5-mg pellet): 4073 ± 72 g
Final 9-Week Shank-Toe Length ([1]; 5-mg pellet): 18.6 ± 0.21 cm
Right Breast Muscle ([1]; 5-mg pellet): 415 ± 7 g
Feed/Gain Ratio ([1]; 5-mg pellet): 2.03 ± 0.03
Abdominal Adipose (%) ([1]; 5-mg pellet): 28%
Abdominal Adipose ([1]; 50-mg pellet): 20.2
Average Daily Gain ([1]; 50-mg pellet): 121 ± 3 g
Final 9-Week Body Weight ([1]; 50-mg pellet): 4365 ± 84 g
Final 9-Week Shank-Toe Length ([1]; 50-mg pellet): 18.79 ± 0.25 cm
Right Breast Muscle ([1]; 50-mg pellet): 487 ± 13 g
Feed/Gain Ratio ([1]; 50-mg pellet): 1.82 ± 0.03
Abdominal Adipose (%) ([1]; 50-mg pellet): 32%
Feed/Gain Ratio (%) ([1]; 50-mg pellet): 13.7%
Average Daily Gain (%) ([1]; 50-mg pellet): 17.5%
Final 9-Week Body Weight (%) ([1]; 50-mg pellet): 8.9%
Right Breast Muscle (%) ([1]; 50-mg pellet): 24.9%
cross-reaction with Immuchem testosterone antiserum [2]: 7.8%
Abdominal Adipose ([3]; 5-cm Silastic capsule): 12.2 ± 1.44
Average Daily Gain ([3]; 5-cm Silastic capsule): 113 ± 3 g
Final 10-Week Body Weight ([3]; 5-cm Silastic capsule): 4985 ± 60 g
Final 10-Week Shank-Toe Length ([3]; 5-cm Silastic capsule): 24.4 ± 0.15 cm
Right Breast Muscle ([3]; 5-cm Silastic capsule): 465 ± 17 g
Feed/Gain Ratio ([3]; 5-cm Silastic capsule): 2.30 ± 0.120
Right Breast Muscle (%) ([3]; 5-cm capsule): 8.4%
Feed Efficiency ([3]; 5-cm capsule): 9.4%
Abdominal Adipose ([3]; 50-mg pellet): 9.53 ± 1.12
Average Daily Gain ([3]; 50-mg pellet): 120 ± 3 g
Final 10-Week Body Weight ([3]; 50-mg pellet): 5202 ± 44 g
Final 10-Week Shank-Toe Length ([3]; 50-mg pellet): 24.3 ± 0.28 cm
Right Breast Muscle ([3]; 50-mg pellet): 460 ± 10 g
Feed/Gain Ratio ([3]; 50-mg pellet): 2.33 ± 0.079
Average Daily Gain (%) ([3]; 50-mg pellet): 10.1%
Final 10-Week Body Weight (%) ([3]; 50-mg pellet): 6.0%
Right Breast Muscle (%) ([3]; 50-mg pellet): 7.2%
results when used instead of 19-nortestosterone ([4]; turkeys): unexpectedly beneficial results

C[C@]12CC[C@H]3[C@@H](CCC4=CC(=O)CC[C@@H]43)[C@@H]1CC[C@@H]2O [19-Nortestosterone, 19-nortestosterone]
Abdominal Adipose ([1]; 5-mg pellet): 22.8
Average Daily Gain ([1]; 5-mg pellet): 108 ± 3 g
Final 9-Week Body Weight ([1]; 5-mg pellet): 4115 ± 122 g
Final 9-Week Shank-Toe Length ([1]; 5-mg pellet): 18.87 ± 0.25 cm
Right Breast Muscle ([1]; 5-mg pellet): 439 ± 15 g
Feed/Gain Ratio ([1]; 5-mg pellet): 1.92 ± 0.04
Abdominal Adipose (%) ([1]; 5-mg pellet): 23%
Feed/Gain Ratio (%) ([1]; 5-mg pellet): 9.0%
Right Breast Muscle (%) ([1]; 5-mg pellet): 12.6%
Abdominal Adipose ([1]; 50-mg pellet): 18.7
Average Daily Gain ([1]; 50-mg pellet): 127 ± 3 g
Final 9-Week Body Weight ([1]; 50-mg pellet): 4476 ± 94 g
Final 9-Week Shank-Toe Length ([1]; 50-mg pellet): 18.31 ± 0.24 cm
Right Breast Muscle ([1]; 50-mg pellet): 493 ± 17 g
Feed/Gain Ratio ([1]; 50-mg pellet): 1.76 ± 0.07
Abdominal Adipose (%) ([1]; 50-mg pellet): 37%
Feed/Gain Ratio (%) ([1]; 50-mg pellet): 16.6%
Average Daily Gain (%) ([1]; 50-mg pellet): 23.3%
Final 9-Week Body Weight (%) ([1]; 50-mg pellet): 11.6%
Right Breast Muscle (%) ([1]; 50-mg pellet): 26.4%
Abdominal Adipose ([3]; 5-cm Silastic capsule): 7.88 ± 2.10
Average Daily Gain ([3]; 5-cm Silastic capsule): 131 ± 3 g
Final 10-Week Body Weight ([3]; 5-cm Silastic capsule): 5410 ± 73 g
Final 10-Week Shank-Toe Length ([3]; 5-cm Silastic capsule): 23.5 ± 0.15 cm
Right Breast Muscle ([3]; 5-cm Silastic capsule): 513 ± 15 g
Feed/Gain Ratio ([3]; 5-cm Silastic capsule): 1.94 ± 0.041
Abdominal Adipose (%) ([3]; 5-cm capsule): 52.8%
Average Daily Gain (%) ([3]; 5-cm capsule): 20.2%
Final 10-Week Body Weight (%) ([3]; 5-cm capsule): 10.2%
Right Breast Muscle (%) ([3]; 5-cm capsule): 12.6%
Feed Efficiency ([3]; 5-cm capsule): 23.6%
Abdominal Adipose ([3]; 50-mg pellet): 6.74 ± 1.57
Average Daily Gain ([3]; 50-mg pellet): 132 ± 6 g
Final 10-Week Body Weight ([3]; 50-mg pellet): 5416 ± 136 g
Final 10-Week Shank-Toe Length ([3]; 50-mg pellet): 23.3 ± 0.22 cm
Right Breast Muscle ([3]; 50-mg pellet): 529 ± 22 g
Feed/Gain Ratio ([3]; 50-mg pellet): 1.99 ± 0.091
Abdominal Adipose (%) ([3]; 50-mg pellet): 59.6%
Average Daily Gain (%) ([3]; 50-mg pellet): 21.1%
Final 10-Week Body Weight (%) ([3]; 50-mg pellet): 10.3%
Right Breast Muscle (%) ([3]; 50-mg pellet): 23.3%
Feed Efficiency ([3]; 50-mg pellet): 21.6%
results compared with testosterone in turkeys ([4]; Table IV and Table V): unexpectedly superior advantages
relative amount of fat mass ([4]; turkey carcass): a lower relative amount of fat mass
growth rate and feed efficiency ([4]; turkeys): an increase in growth rate and feed efficiency
muscle mass ([4]; turkeys): an increase in muscle mass
results in turkeys compared with 19-nortestosterone in chickens ([4]; vs chickens (Table III)): unexpectedly superior results

C[C@]12CC[C@H]3[C@@H](CCC4=CC(=O)CC[C@@]43C)[C@@H]1CC[C@@H]2O [Testosterone, testosterone]
Abdominal Adipose ([1]; 5-mg pellet): 20.2
Average Daily Gain ([1]; 5-mg pellet): 108 ± 2 g
Final 9-Week Body Weight ([1]; 5-mg pellet): 4096 ± 65 g
Final 9-Week Shank-Toe Length ([1]; 5-mg pellet): 18.9 ± 0.16 cm
Right Breast Muscle ([1]; 5-mg pellet): 430 ± 15 g
Feed/Gain Ratio ([1]; 5-mg pellet): 2.01 ± 0.05
Abdominal Adipose (%) ([1]; 5-mg pellet): 32%
Abdominal Adipose ([1]; 50-mg pellet): 22.8
Average Daily Gain ([1]; 50-mg pellet): 119 ± 3 g
Final 9-Week Body Weight ([1]; 50-mg pellet): 4320 ± 69 g
Final 9-Week Shank-Toe Length ([1]; 50-mg pellet): 18.6 ± 0.13 cm
Right Breast Muscle ([1]; 50-mg pellet): 477 ± 17 g
Feed/Gain Ratio ([1]; 50-mg pellet): 1.91 ± 0.04
Abdominal Adipose (%) ([1]; 50-mg pellet): 23%
Feed/Gain Ratio (%) ([1]; 50-mg pellet): 9.5%
Average Daily Gain (%) ([1]; 50-mg pellet): 15.5%
Final 9-Week Body Weight (%) ([1]; 50-mg pellet): 7.7%
Right Breast Muscle (%) ([1]; 50-mg pellet): 22.3%
cross-reaction with Immuchem testosterone antiserum [2]: 100%
Abdominal Adipose ([3]; 5-cm Silastic capsule): 13.2 ± 3.57
Average Daily Gain ([3]; 5-cm Silastic capsule): 115 ± 2 g
Final 10-Week Body Weight ([3]; 5-cm Silastic capsule): 5055 ± 61 g
Final 10-Week Shank-Toe Length ([3]; 5-cm Silastic capsule): 24.2 ± 0.18 cm
Right Breast Muscle ([3]; 5-cm Silastic capsule): 457 ± 20 g
Feed/Gain Ratio ([3]; 5-cm Silastic capsule): 2.39 ± 0.088
Abdominal Adipose ([3]; 50-mg pellet): 11.61 ± 1.37
Average Daily Gain ([3]; 50-mg pellet): 116 ± 4 g
Final 10-Week Body Weight ([3]; 50-mg pellet): 5100 ± 82 g
Final 10-Week Shank-Toe Length ([3]; 50-mg pellet): 23.6 ± 0.19 cm
Right Breast Muscle ([3]; 50-mg pellet): 450 ± 10 g
Feed/Gain Ratio ([3]; 50-mg pellet): 2.37 ± 0.086
